# Read-outs that look alike come from different tables or passages of the source. Where a SMILES comes first, the peptide text is derived from it. Bridges are numbered along the chain shown (N, C = ends). Where no end group is shown, it is not given here. [ ]: non-standard residue; d: D form.
# Key:
# rat ASIC3 [1] = biological target: T1, rat ASIC3 (Rattus norvegicus, UniProt O35240); assay: steady-state desensitization (SSD) of rat ASIC3; format: cell-based; conditions: pH 7, without Taf 1.4 ± 0.2%, control = pH drop 7.4 to 5.5, mean ± SEM, n = 5, read-out: integral current at conditioning pH 7.0, % of control
# T1 construct: expressed in transfected cells; host or cells: Xenopus laevis oocytes injected with cRNA from a PCi plasmid
# T1 sequence (O35240 1-533): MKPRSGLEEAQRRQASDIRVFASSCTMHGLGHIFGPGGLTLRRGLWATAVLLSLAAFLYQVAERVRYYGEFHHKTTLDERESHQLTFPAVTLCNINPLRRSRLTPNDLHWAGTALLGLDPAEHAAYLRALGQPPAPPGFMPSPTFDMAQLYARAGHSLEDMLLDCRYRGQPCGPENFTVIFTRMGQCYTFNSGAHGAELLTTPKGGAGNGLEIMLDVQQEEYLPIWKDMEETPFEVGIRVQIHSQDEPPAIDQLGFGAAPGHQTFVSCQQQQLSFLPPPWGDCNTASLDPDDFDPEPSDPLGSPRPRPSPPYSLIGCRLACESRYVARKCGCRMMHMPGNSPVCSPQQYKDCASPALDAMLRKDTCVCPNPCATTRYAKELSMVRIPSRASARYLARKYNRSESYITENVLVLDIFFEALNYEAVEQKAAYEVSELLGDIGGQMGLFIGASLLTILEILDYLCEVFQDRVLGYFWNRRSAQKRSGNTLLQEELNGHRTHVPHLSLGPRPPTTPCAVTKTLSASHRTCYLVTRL
# human ASIC3 [2] = biological target: T2, human ASIC3 (Homo sapiens, UniProt Q9UHC3); assay: two-electrode voltage clamp, human ASIC3 in X. laevis oocytes; format: cell-based
# T2 construct: expressed in transfected cells; host or cells: Xenopus laevis oocytes injected with cRNA from a pVAX1 plasmid
# T2 sequence (Q9UHC3 1-531): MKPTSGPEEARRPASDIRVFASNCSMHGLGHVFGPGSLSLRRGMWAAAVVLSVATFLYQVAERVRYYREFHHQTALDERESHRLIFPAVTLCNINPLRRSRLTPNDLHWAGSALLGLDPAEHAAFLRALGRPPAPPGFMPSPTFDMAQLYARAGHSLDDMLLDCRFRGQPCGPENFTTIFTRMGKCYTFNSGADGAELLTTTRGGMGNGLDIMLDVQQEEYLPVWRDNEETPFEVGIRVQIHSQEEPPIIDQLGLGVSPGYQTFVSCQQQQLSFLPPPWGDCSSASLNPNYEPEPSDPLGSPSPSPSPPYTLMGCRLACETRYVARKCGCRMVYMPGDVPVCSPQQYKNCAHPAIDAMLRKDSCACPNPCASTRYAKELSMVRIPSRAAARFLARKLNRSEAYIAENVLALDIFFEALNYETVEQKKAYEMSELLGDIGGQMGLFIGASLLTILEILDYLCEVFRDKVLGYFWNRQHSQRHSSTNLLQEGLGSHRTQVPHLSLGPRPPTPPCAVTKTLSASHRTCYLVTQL
# human ASIC3 [3] = biological target: T2, human ASIC3; assay: steady-state desensitization of human ASIC3; format: cell-based; conditions: pH 7.4; 1 mM Taf; without Taf 11 ± 2%; control = pH drop 8.0 to 5.5; mean ± SEM, n = 5; p = 0.005; read-out: total integral current at conditioning pH 7.4, % of control
# rat ASIC1a [4] = biological target: T3, rat ASIC1a (Rattus norvegicus, UniProt P55926); assay: two-electrode voltage clamp, homomeric rat ASIC1a in X. laevis oocytes; format: cell-based
# T3 construct: expressed in transfected cells; host or cells: Xenopus laevis oocytes injected with cRNA from a PCi plasmid
# T3 sequence (P55926 1-526): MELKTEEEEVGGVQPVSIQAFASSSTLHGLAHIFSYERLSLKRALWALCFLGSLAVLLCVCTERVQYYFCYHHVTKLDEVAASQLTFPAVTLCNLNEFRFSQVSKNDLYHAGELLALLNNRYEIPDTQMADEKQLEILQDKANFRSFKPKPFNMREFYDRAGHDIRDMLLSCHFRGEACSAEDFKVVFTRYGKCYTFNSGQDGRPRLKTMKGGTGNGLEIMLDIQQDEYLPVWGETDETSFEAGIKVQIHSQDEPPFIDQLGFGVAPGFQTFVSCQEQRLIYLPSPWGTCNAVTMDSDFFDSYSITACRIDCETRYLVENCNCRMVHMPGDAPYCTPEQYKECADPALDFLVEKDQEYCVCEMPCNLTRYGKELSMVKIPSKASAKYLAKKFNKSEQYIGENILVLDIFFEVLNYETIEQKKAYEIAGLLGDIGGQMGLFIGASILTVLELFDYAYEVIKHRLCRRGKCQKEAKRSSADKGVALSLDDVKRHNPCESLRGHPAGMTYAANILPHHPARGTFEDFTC
# rat ASIC3 [5] = biological target: T1, rat ASIC3; assay: two-electrode voltage clamp, homomeric rat ASIC3 in X. laevis oocytes; format: cell-based
# rat ASIC1a [6] = biological target: T3, rat ASIC1a; assay: steady-state desensitization of rat ASIC1a; format: cell-based; conditions: 1 mM Taf; without Taf 9.1 ± 2.5%; stimulus pH 5.5; mean ± SEM, n = 5; p = 0.9; read-out: integral current at conditioning pH 7.0, % of control
# [7] = solution for subcutaneous administration; ref manufacturer's website https://sotex.ru/production/catalog/detail.php?ELEMENT_ID=4952; cited from earlier work
# Excerpt: Due to the modulating effect of Taf towards ASIC3 in peripheral neurons, the proven analgesic effect of Taf on human may be accompanied by the development of side effects such as pain, mechanical hyperalgesia, inflammatory muscle and joint hyperalgesia, etc., where ASIC3 plays a crucial role. In addition, the significant modulating effect on ASIC1b/3 heteromers (Figure 7) may also have a negative impact on both peripheral acute and acid-induced chronic pain, where the ASIC1b-containing channels also play an important role. Indeed, the recommended dose for subcutaneous a ...
# ASIC channels [8] = conditions: cited from earlier work
# rat ASIC3 [9] = biological target: T1, rat ASIC3; assay: cell-based
# ASIC3 [10] = conditions: mice; activation of ASIC3; ref [31],[32]; cited from earlier work
# Excerpt: In this study, we have investigated the pharmacological effect of tafalgin (Taf) on ASICs. […] These channels, preferably having a neuronal localization, play an important role in the functioning of CNS and PNS, and are involved in the regulation of synaptic plasticity and learning, the fear perception, and responses to ischemic stroke, multiple sclerosis, and nociception. Positive modulators of ASICs are shown to have ...
# [11] = system: ASIC1a and ASIC1a-containing channels; conditions: cited from earlier work
# ASIC1 = conditions: cited from earlier work
# ASIC3 [12] = system: ASIC3; design: method as in PMID 37918499; conditions: suppressing morphine-induced microglial activation through ASIC3 inhibition; ref [40]; cited from earlier work
# ASIC channels [13] = system: ASIC channels; design: method as in PMID 34721074; conditions: dual-action ligand; ref [39]; cited from earlier work
compound,measurement,setting,value
"C[C@@H](NC(=O)[C@@H](N)Cc1ccc(O)cc1)C(=O)N[C@@H](Cc1ccccc1)C(=O)NCC(N)=O [Taf, Tyr-D-Ala-Phe-Gly-NH2] (H-Y[dA]FG-NH2)",remaining activity at 300 µM,"rat ASIC3 [1]; 0.3 mM Taf, p = 0.009",3.6 ± 0.3%
same,remaining activity at 2000 µM,rat ASIC3 [1]; 2 mM Taf,50 ± 3%
same,EC50,human ASIC3 [2],330 ± 80 µM
same,"Imax (upper asymptote), % of control","human ASIC3 [2]; integral current, pH 8.0 to 5.5, mean ± SEM, 5 cells",373 ± 28%
same,recommended subcutaneous dose concentration (~9 mM) over EC50 for human ASIC3,human ASIC3 [2]; ~9 mM solution vs EC50 on hASIC3,approximately 30 times
same,remaining activity at 1000 µM,human ASIC3 [3],22 ± 4%
same,EC50,rat ASIC1a [4],1050 ± 270 µM
same,increase in the integral current,"rat ASIC1a [4]; 0.3 mM Taf, Vh −50 mV, pH 7.4 to 5.5, mean ± SEM, n = 5, p < 0.001",40 ± 5%
same,"integral current Imax, % of control","rat ASIC1a [4]; pH 7.4 to 5.5, mean ± SEM, n = 10, same as rASIC3 (p = 0.45)",332 ± 103%
same,EC50,rat ASIC3 [5],86 ± 24 µM
same,"increase in the integral current, protocol p.-a.","rat ASIC3 [5]; 0.3 mM Taf pre-applied 30 s in resting state, conditioning pH 7.4, stimulus pH 5.5, mean ± SEM, n = 5, p < 0.001",116 ± 5%
same,increase in the integral current,"rat ASIC3 [5]; 0.3 mM Taf, Vh −50 mV, pH 5.5 stimulus, isoform screening, mean ± SEM, n = 5, p < 0.001",115 ± 6%
same,"maximum current (Imax), to control","rat ASIC3 [5]; integral current vs control (pH drop from 7.4 to 5.5), mean ± SEM, n = 9",251 ± 15%
same,remaining activity at 1000 µM,rat ASIC1a [6],9.4 ± 2.5%
same,side effects,[7],"peripheral neuropathy, itching, and pain at the injection site"
DAMGO,effect on ASIC channels,ASIC channels [8],negative modulators
"GTACSCGNSKGIYWFYRPSCPTDRGYTGSCRYFLGTCCTPAD (disulfide 4-37, 6-30, 20-38) [APETx2]",τdes,"rat ASIC3 [9]; 100 nM APETx2, control 282 ± 22 ms, mean ± SEM, n = 5, p = 0.2",240 ± 22 ms
same,nH of inhibition in the presence of Taf,"rat ASIC3 [9]; APETx2 + 0.3 mM Taf, mean ± SEM, 5–6 cells",1.11 ± 0.05
same,nH of inhibition,"rat ASIC3 [9]; APETx2 alone, mean ± SEM, 5–6 cells",1.37 ± 0.05
same,inhibition of the channel,"rat ASIC3 [9]; APETx2 alone, pH 7.4 to 5.5",completely inhibited the channel
Cc1nc(NC(=N)N)nc2ccccc12 [2-guanidine-4-methylquinazoline],nocifensive behavior,ASIC3 [10],induce nocifensive behavior in mice
CN1CC[C@]23c4c5ccc(O)c4O[C@H]2[C@@H](O)C=C[C@H]3[C@H]1C5 [morphine],effect on ASIC channels,ASIC channels [8],negative modulators
COc1ccc2c3c1O[C@H]1C(=O)CC[C@@]4(O)[C@@H](C2)N(C)CC[C@]314 [oxycodone],effect on ASIC channels,ASIC channels [8],positive modulating effect
dynorphin,effect on proton-evoked currents,[11],restore the proton-evoked currents
same,acidosis-induced neuronal death,ASIC1,increase the acidosis-induced neuronal death
"N=C(N)NC(=O)c1nc(Cl)c(N)nc1N [Ami, amiloride]",chronic morphine tolerance,ASIC3 [12],reduce chronic morphine tolerance
same,nH of inhibition in the presence of Taf,rat ASIC3 [9],1.06 ± 0.37
same,"residual integral current in the presence of Taf, % of control",rat ASIC3 [9],129 ± 9%
same,τdes,rat ASIC3 [9],732 ± 46 ms
same,IC50,rat ASIC3 [9]; half-maximal inhibitory concentration (IC50),66.9 ± 5.2 µM
same,IC50,rat ASIC3 [9]; half-maximal inhibitory concentration (IC50) in the presence of Taf,61.5 ± 21.2 µM
same,nH of inhibition,rat ASIC3 [9]; pH 7.4,0.87 ± 0.05
same,"residual integral current (lower asymptote), % of control",rat ASIC3 [9]; pH 7.4,36 ± 2%
same,action on ASIC channels,ASIC channels [13],capable of blocking ASIC channels and acting as an ASIC3-positive modulator

# Reference: publication PMC10855113, “Opioid Analgesic as a Positive Allosteric Modulator of Acid-Sensing Ion Channels” (International Journal of Molecular Sciences, 2024)
